Assay results published in ChEMBL document CHEMBL4190350, “Synthesis, antimicrobial, antiquorum-sensing, antitumor and cytotoxic activities of new series of cyclopenta(hepta)[b]thiophene and fused cyclohepta[b]thiophene analogs” (Eur J Med Chem, 2017).
In brackets after ≈: the same amount, converted by molar mass.

Tests used:
Aspergillus fumigatus [1] = experiment: Antimicrobial activity against Aspergillus fumigatus incubated for 48 hrs by disc diffusion assay; assay type: functional
Staphylococcus aureus = experiment: Antimicrobial activity against Staphylococcus aureus incubated for 24 hrs by disc diffusion assay; assay type: functional
Aspergillus fumigatus [2] = experiment: Antimicrobial activity against Aspergillus fumigatus incubated for 48 hrs by serial dilution method; assay type: functional
[3] = tested on: Chromobacterium violaceum; experiment: Inhibition of quorum sensing system in Chromobacterium violaceum ATCC 12472 assessed as inhibition of violacein production at 5 mg/mL incubated for 48 hrs
Candida albicans = experiment: Antimicrobial activity against Candida albicans incubated for 48 hrs by disc diffusion assay; assay type: functional
Bacillus cereus [4] = experiment: Antimicrobial activity against Bacillus cereus incubated for 24 hrs by disc diffusion assay; assay type: functional
Escherichia coli = experiment: Antimicrobial activity against Escherichia coli incubated for 24 hrs by disc diffusion assay; assay type: functional
HepG2 = experiment: Antitumor activity against human HepG2 cells assessed as inhibition of cell viability incubated for 48 hrs by MTT assay; assay type: functional, cell-based; details: HepG2, 48 h
HT-29 = experiment: Antitumor activity against human HT-29 cells assessed as inhibition of cell viability incubated for 48 hrs by MTT assay; assay type: functional, cell-based; details: HT-29, 48 h
MCF7 = experiment: Antitumor activity against human MCF7 cells assessed as inhibition of cell viability incubated for 48 hrs by MTT assay; assay type: functional, cell-based; details: MCF7, 48 h
[5] = Binding affinity to DNA (unknown origin) assessed as reduction in absorption maxima for methyl green/DNA complex incubated for 24 hrs by methyl green/DNA displacement assay
Bacillus cereus [6] = experiment: Antimicrobial activity against Bacillus cereus incubated for 24 hrs by serial dilution method; assay type: functional
Ehrlich [7] = experiment: Antitumor activity against mouse EAC cells implanted in Swiss albino mouse assessed as increase in life span at 0.5 mg for 9 days relative to untreated control; assay type: functional
Mus musculus [8] = experiment: Toxicity in mouse EAC cells implanted Swiss albino mouse assessed as RBC count at 0.5 mg for 9 days (reference value: 3.69 10^6/mm3); assay type: organism-based; details: in vivo, 216 h
Mus musculus [9] = experiment: Toxicity in mouse EAC cells implanted Swiss albino mouse assessed as hemoglobin level at 0.5 mg for 9 days (reference value: 8.15 g/dl); assay type: organism-based; details: in vivo, 216 h
Ehrlich [10] = experiment: Antitumor activity against mouse EAC cells implanted in Swiss albino mouse assessed as tumor volume at 0.5 mg for 9 days (reference value: 9.85 ml); assay type: functional
Mus musculus [11] = experiment: Toxicity in mouse EAC cells implanted Swiss albino mouse assessed as WBC count at 0.5 mg for 9 days (reference value: 23.96 10^3/mm3); assay type: organism-based; details: in vivo, 216 h
Ehrlich [12] = experiment: Antitumor activity against mouse EAC cells implanted in Swiss albino mouse assessed as mean survival time at 0.5 mg for 9 days (reference value: 14.5 day); assay type: functional
WI-38 = experiment: Cytotoxicity in human WI38 cells assessed as inhibition of cell viability incubated for 48 hrs by MTT assay; assay type: cell-based; details: WI-38, 48 h

NNC(=O)c1c(NN=C2C(=O)NNC2=O)sc2c1CCC2
diameter of the inhibition zone (DIZ) (Aspergillus fumigatus [1]): 17 mm
diameter of the inhibition zone (DIZ) (Staphylococcus aureus): <2 mm
MIC (Aspergillus fumigatus [2]): 1010 µM (≈ 313 µg/mL)
INH [3]: 8 mm
diameter of the inhibition zone (DIZ) (Candida albicans): <2 mm
diameter of the inhibition zone (DIZ) (Bacillus cereus [4]): <2 mm
diameter of the inhibition zone (DIZ) (Escherichia coli): <2 mm

CC1=NNC(=O)/C1=N\Nc1sc2c(c1C(=O)NN)CCCCC2
IC50 (HepG2): 81.7 µM
diameter of the inhibition zone (DIZ) (Aspergillus fumigatus [1]): <2 mm
diameter of the inhibition zone (DIZ) (Staphylococcus aureus): <2 mm
IC50 (HT-29): 66.7 µM
INH [3]: 5 mm
diameter of the inhibition zone (DIZ) (Candida albicans): <2 mm
diameter of the inhibition zone (DIZ) (Bacillus cereus [4]): <2 mm
IC50 (MCF7): 41.2 µM
diameter of the inhibition zone (DIZ) (Escherichia coli): <2 mm

N#Cc1c(O)c2c3c(sc2[nH]c1=O)CCCCC3
IC50 (HepG2): 22.7 µM
diameter of the inhibition zone (DIZ) (Aspergillus fumigatus [1]): 8 mm
diameter of the inhibition zone (DIZ) (Staphylococcus aureus): <2 mm
IC50 (HT-29): 27.3 µM
INH [3]: < 2 mm
diameter of the inhibition zone (DIZ) (Candida albicans): <2 mm
diameter of the inhibition zone (DIZ) (Bacillus cereus [4]): 3 mm
IC50 (MCF7): 19.1 µM
diameter of the inhibition zone (DIZ) (Escherichia coli): 3 mm

CCOC(=O)C(=NNc1sc2c(c1C(=O)OCC)CCC2)C(=O)OCC
IC50 (HepG2): > 100 µM
diameter of the inhibition zone (DIZ) (Aspergillus fumigatus [1]): <2 mm
diameter of the inhibition zone (DIZ) (Staphylococcus aureus): 9 mm
IC50 (HT-29): > 100 µM
INH [3]: < 2 mm
diameter of the inhibition zone (DIZ) (Candida albicans): <2 mm
diameter of the inhibition zone (DIZ) (Bacillus cereus [4]): 5 mm
IC50 (MCF7): > 100 µM
diameter of the inhibition zone (DIZ) (Escherichia coli): 7 mm

CCOC(=O)c1c(NC(=O)CC#N)sc2c1CCCCC2
IC50 (HepG2): > 100 µM
diameter of the inhibition zone (DIZ) (Aspergillus fumigatus [1]): <2 mm
diameter of the inhibition zone (DIZ) (Staphylococcus aureus): <2 mm
IC50 (HT-29): > 100 µM
INH [3]: 2 mm
diameter of the inhibition zone (DIZ) (Candida albicans): 14 mm
diameter of the inhibition zone (DIZ) (Bacillus cereus [4]): <2 mm
IC50 (MCF7): 60.4 µM
diameter of the inhibition zone (DIZ) (Escherichia coli): <2 mm

CCOC(=O)/C(C#N)=N/Nc1sc2c(c1C(=O)OCC)CCCCC2
IC50 (HepG2): > 100 µM
diameter of the inhibition zone (DIZ) (Aspergillus fumigatus [1]): <2 mm
diameter of the inhibition zone (DIZ) (Staphylococcus aureus): 7 mm
IC50 (HT-29): 92.8 µM
INH [3]: 4 mm
diameter of the inhibition zone (DIZ) (Candida albicans): 5 mm
diameter of the inhibition zone (DIZ) (Bacillus cereus [4]): 5 mm
IC50 (MCF7): 70.9 µM
diameter of the inhibition zone (DIZ) (Escherichia coli): <2 mm

CCOC(=O)C(=NNc1sc2c(c1C(=O)OCC)CCCCC2)C(=O)OCC
IC50 (HepG2): 76.3 µM
diameter of the inhibition zone (DIZ) (Aspergillus fumigatus [1]): <2 mm
diameter of the inhibition zone (DIZ) (Staphylococcus aureus): 5 mm
IC50 (HT-29): 86.8 µM
INH [3]: < 2 mm
diameter of the inhibition zone (DIZ) (Candida albicans): <2 mm
diameter of the inhibition zone (DIZ) (Bacillus cereus [4]): <2 mm
IC50 (MCF7): 54 µM
diameter of the inhibition zone (DIZ) (Escherichia coli): <2 mm

CC(=O)c1c(O)c2c3c(sc2[nH]c1=O)CCCCC3
IC50 (HepG2): 54.9 µM
diameter of the inhibition zone (DIZ) (Aspergillus fumigatus [1]): 24 mm
diameter of the inhibition zone (DIZ) (Staphylococcus aureus): 8 mm
MIC (Aspergillus fumigatus [2]): 563 µM (≈ 156 µg/mL)
IC50 (HT-29): 47.2 µM
INH [3]: 5 mm
diameter of the inhibition zone (DIZ) (Candida albicans): 9 mm
diameter of the inhibition zone (DIZ) (Bacillus cereus [4]): 9 mm
IC50 (MCF7): 24.9 µM
IC50 [5]: 56.3 µM
diameter of the inhibition zone (DIZ) (Escherichia coli): 12 mm

GENTAMICIN
MIC (Bacillus cereus [6]): 0.31 µM

CCOC(=O)c1c(N/N=C(\C(C)=O)C(=O)c2ccccc2)sc2c1CCCCC2
IC50 (HepG2): 71.6 µM
diameter of the inhibition zone (DIZ) (Aspergillus fumigatus [1]): 18 mm
diameter of the inhibition zone (DIZ) (Staphylococcus aureus): <2 mm
MIC (Aspergillus fumigatus [2]): 758 µM (≈ 313 µg/mL)
IC50 (HT-29): 94.7 µM
INH [3]: 3 mm
diameter of the inhibition zone (DIZ) (Candida albicans): 11 mm
diameter of the inhibition zone (DIZ) (Bacillus cereus [4]): <2 mm
IC50 (MCF7): 36.9 µM
diameter of the inhibition zone (DIZ) (Escherichia coli): <2 mm

CCOC(=O)c1c(N/N=C2\C(=O)NN=C2C)sc2c1CCCCC2
IC50 (HepG2): 42.3 µM
diameter of the inhibition zone (DIZ) (Aspergillus fumigatus [1]): <2 mm
diameter of the inhibition zone (DIZ) (Staphylococcus aureus): <2 mm
IC50 (HT-29): 88.1 µM
INH [3]: < 2 mm
diameter of the inhibition zone (DIZ) (Candida albicans): 10 mm
diameter of the inhibition zone (DIZ) (Bacillus cereus [4]): <2 mm
IC50 (MCF7): 52.4 µM
diameter of the inhibition zone (DIZ) (Escherichia coli): <2 mm

CCOC(=O)c1c(N/N=C2\C(=O)NN=C2C)sc2c1CCC2
IC50 (HepG2): 92.4 µM
diameter of the inhibition zone (DIZ) (Aspergillus fumigatus [1]): <2 mm
diameter of the inhibition zone (DIZ) (Staphylococcus aureus): 7 mm
IC50 (HT-29): 84.5 µM
INH [3]: < 2 mm
diameter of the inhibition zone (DIZ) (Candida albicans): 8 mm
diameter of the inhibition zone (DIZ) (Bacillus cereus [4]): <2 mm
IC50 (MCF7): 57.2 µM
diameter of the inhibition zone (DIZ) (Escherichia coli): <2 mm

NNC(=O)c1c(NN=C2C(=O)NNC2=O)sc2c1CCCCC2
IC50 (HepG2): 32.6 µM
diameter of the inhibition zone (DIZ) (Aspergillus fumigatus [1]): <2 mm
diameter of the inhibition zone (DIZ) (Staphylococcus aureus): <2 mm
IC50 (HT-29): 49.4 µM
INH [3]: 6 mm
diameter of the inhibition zone (DIZ) (Candida albicans): <2 mm
diameter of the inhibition zone (DIZ) (Bacillus cereus [4]): <2 mm
IC50 (MCF7): 28.7 µM
diameter of the inhibition zone (DIZ) (Escherichia coli): <2 mm

CCOC(=O)c1c(-n2cnnn2)sc2c1CCCCC2
IC50 (HepG2): > 100 µM
diameter of the inhibition zone (DIZ) (Aspergillus fumigatus [1]): <2 mm
diameter of the inhibition zone (DIZ) (Staphylococcus aureus): 3 mm
IC50 (HT-29): > 100 µM
INH [3]: < 2 mm
diameter of the inhibition zone (DIZ) (Candida albicans): <2 mm
diameter of the inhibition zone (DIZ) (Bacillus cereus [4]): 9 mm
IC50 (MCF7): 62.5 µM
diameter of the inhibition zone (DIZ) (Escherichia coli): 6 mm

CCOC(=O)c1c(NC(=O)CC(C)=O)sc2c1CCCCC2
IC50 (HepG2): 89.7 µM
diameter of the inhibition zone (DIZ) (Aspergillus fumigatus [1]): <2 mm
diameter of the inhibition zone (DIZ) (Staphylococcus aureus): <2 mm
IC50 (HT-29): > 100 µM
INH [3]: < 2 mm
diameter of the inhibition zone (DIZ) (Candida albicans): <2 mm
diameter of the inhibition zone (DIZ) (Bacillus cereus [4]): <2 mm
IC50 (MCF7): 62.8 µM
diameter of the inhibition zone (DIZ) (Escherichia coli): <2 mm

Oc1cc(O)c2c(c1)O[C@H](c1ccc(O)c(O)c1)[C@@H](O)C2
INH [3]: 2 mm

CCOC(=O)/C(C#N)=N/Nc1sc2c(c1C(=O)OCC)CCC2
IC50 (HepG2): 58.2 µM
diameter of the inhibition zone (DIZ) (Aspergillus fumigatus [1]): <2 mm
diameter of the inhibition zone (DIZ) (Staphylococcus aureus): 11 mm
IC50 (HT-29): 72.1 µM
INH [3]: 8 mm
diameter of the inhibition zone (DIZ) (Candida albicans): <2 mm
diameter of the inhibition zone (DIZ) (Bacillus cereus [4]): 7 mm
IC50 (MCF7): 45.5 µM
diameter of the inhibition zone (DIZ) (Escherichia coli): 7 mm

O=c1[nH]cc(F)c(=O)[nH]1 [FLUOROURACIL]
IC50 (HepG2): 6.9 µM
ILS (Ehrlich [7]): 237.9%
Activity (Mus musculus [8]): 5.21 ×10⁶ /mm3
Activity (Mus musculus [9]): 12.96 g/dL
Activity (Ehrlich [10]): 1.6 mL
Activity (Mus musculus [11]): 8.86 ×10³ /mm3
IC50 (HT-29): 4.6 µM
IC50 (MCF7): 5.7 µM
MST (Ehrlich [12]): 49 days

NNC(=O)c1c(N/N=C2/C(=O)NN=C2N)sc2c1CCCCC2
IC50 (HepG2): 35.4 µM
diameter of the inhibition zone (DIZ) (Aspergillus fumigatus [1]): <2 mm
diameter of the inhibition zone (DIZ) (Staphylococcus aureus): <2 mm
IC50 (HT-29): 41.2 µM
INH [3]: 9 mm
diameter of the inhibition zone (DIZ) (Candida albicans): <2 mm
diameter of the inhibition zone (DIZ) (Bacillus cereus [4]): <2 mm
IC50 (MCF7): 18.3 µM
diameter of the inhibition zone (DIZ) (Escherichia coli): <2 mm

CCOC(=O)c1c(N/N=C(\C(C)=O)C(=O)c2ccccc2)sc2c1CCC2
IC50 (HepG2): 28.4 µM
ILS (Ehrlich [7]): 130.95%
Activity (Mus musculus [8]): 4.79 ×10⁶ /mm3
Activity (Mus musculus [9]): 11.74 g/dL
diameter of the inhibition zone (DIZ) (Aspergillus fumigatus [1]): 2 mm
diameter of the inhibition zone (DIZ) (Staphylococcus aureus): 9 mm
Activity (Ehrlich [10]): 3.53 mL
Activity (Mus musculus [11]): 9.62 ×10³ /mm3
IC50 (HT-29): 57.4 µM
INH [3]: 3 mm
diameter of the inhibition zone (DIZ) (Candida albicans): <2 mm
diameter of the inhibition zone (DIZ) (Bacillus cereus [4]): 14 mm
IC50 (WI-38): 67.8 µM
IC50 (MCF7): 13.7 µM
IC50 [5]: 29.8 µM
diameter of the inhibition zone (DIZ) (Escherichia coli): 7 mm
MST (Ehrlich [12]): 33.5 days

COc1cccc2c1C(=O)c1c(O)c3c(c(O)c1C2=O)C[C@@](O)(C(=O)CO)C[C@@H]3O[C@H]1C[C@H](N)[C@H](O)[C@H](C)O1 [DOXORUBICIN]
IC50 [5]: 32.4 µM
